This assay concerns H1299 cells. As to the kind of experiment: Phagokinetic track (PKT) assay of H1299 cells treated with cytoskeletal drugs. Format: cell-based. The following applies: for Track area: 4 μM Latrunculin A, 2.5 μM Nocodazole or 100 ng/ml PMA, 5 h total; for Track area / Axis ratio / Effective velocity / Major axis / Migration velocity / Minor axis / Perimeter / Roughness / Solidity: mean ± SD; for Effect on cell motility (montage images, FIG. 6): Latrunculin A 4 μM, Nocadazole 2.5 μM, PMA 100 ng/ml; for PKT area compared to control cells: Latrunculin/Nocodazole p=~0, PMA p<0.05; for Axis ratio / Effective velocity / Major axis / Migration velocity / Minor axis / Perimeter / Roughness / Solidity: same treatments. How it is done:
Preparation of 96-wellplates: Glass-bottom 96-well plates (Cat. # 7706-2370, Whatmann, Inc., Clifton, N.J., USA) were treated for 2 hours at room temperature with 50 μl of 10 μg/ml fibronectin solution dissolved in PBS (Fibronectin, F-1141; Sigma Chemical Co., St Louis, Mo., USA). The wells were then washed twice with PBS and coated with 340 nm diameter white polystyrene latex beads (Product no. 2-300; batch no. 1344); Interfacial Dynamics Corporation-Molecular Probes Microspheres Technologies, USA. The bead suspension (3.2 ml) was centrifuged for 5 minutes at 20,800×g, and resuspended in 4 ml PBS by vortex, until all visible bead clumps were dispersed. The sedimentation procedure was then repeated, after which the beads were resuspended in 7 ml PBS, to a final concentration of […]. Aliquots of 70 μl of the bead suspension were added to each well, pre-coated with fibronectin, in the 96-well plate, and incubated at 37° C. for 2 hours, followed by gentle washing (×5 times) with PBS using a plate washer (Colombus Plus, Tecan, Switzerland). Before cells were plated, the PBS was replaced with 50 μl culture medium suitable for the particular cell type used in the assay (see FIG. 1).
Cell preparation for the phagokinetic track assay: MCF7 (ATCC-HTB-22), MDA-MB-231 (ATCC-HBT-26), and B16-F10 (ATCC-CRL-6475) cells were grown in Dulbeco's Modified Eagle's Medium (DMEM). H1299 cells (ATCC-CRL-5803) were grown in RPMI-1640. Both culture media were supplemented with 10% FCS, 2 mM glutamine, 100 international units/ml penicillin and 100 μg/ml streptomycin (Biological Industries, Beit Haemek, Israel), and placed in a 5% CO2 humidified incubator kept at 37° C. For the PKT assay, 200-400 cells (a 50 μl volume) were cultured in each well. Depending on the track dimensions, the number of the plated cells was calibrated to maximize the number of single cell tracks, yet minimize the number of intersecting tracks.
Phagokinetic track assay: In order to characterize the motile behavior of the various cell lines, MCF7, MDA-MB-231, B16-F10 and H1299 cells were plated on a monolayer of polystyrene beads. All were incubated at 37° C., 5% CO2 for 7 hours, except for the H1299 cells, which were incubated for 5 hours. The first three cell lines were grown in DMEM, and H1299 cells were grown in RPMI 1640 medium, Both media were supplemented with 10% FCS and penicillin/streptomycin antibiotic. At the end of the incubation period, cells were fixed with 3% PFA. Images were taken with a 10× objective, using the autofocus screening microscope system.
Automated microscopy: Commercially-available plates display large deviations from a plane, often exceeding 200 μm, which require adjustment of the focal plane for every image. Commonly-used autofocusing procedures, which are based on finding the highest contrast image among a focal series, are slow and not robust, particularly when low-contrast images, such as those yielded by a monolayer of micro-beads, are used. The phagokinetic tracks were therefore recorded using a cell-screening microscope described in detail (Paran et al., Methods in Enzymology, in press). The rapid, automated collection of sharp, in-focus PKT images was aided by a laser autofocus device (Liron et al., 2006, J Microsc 221, 145-51). The laser autofocus device enables precise location of the substrate surface, and guarantees sharp definition of track boundaries.
The microscope operating program and the image acquisition software was written (In-house) as an application within the UCSF Priism environment (http://msg.ucsf.edu/ive). The microscope includes a computer-controlled plate scanning stage (Prior, Cambridge UK) that defines the pattern of coverage of the well area by the individual images. For this application, images were taken using a 10×/0.4 objective, and adjacent fields were stitched together, forming a montage of the entire well, or any desired fraction of the well area. […]

Structures are written as SMILES.

Consider `COC(=O)Nc1nc2ccc(C(=O)c3cccs3)cc2[nH]1` [Nocodazole], for which the Track area is 6100 ± 3600 μm^2, the Axis ratio was 1.6 ± 0.4, the Effective velocity is reported as 14 ± 8 μm/h and the Major axis came out at 123 ± 43 μm. The compound further registered a Migration velocity of 17 ± 11 μm/h, a Minor axis of 78 ± 18 μm, a Perimeter of 385 ± 140 μm and a Roughness of 2.1 ± 0.9. The compound further gave a Solidity of 0.9 ± 0.07. Where the note is “in words”, the “Effect on cell motility (montage images, FIG. 6)” value (“Effect on cell motility” for short) was “inhibited cell motility”; the “Axis ratio compared to control cells” value is “reduced”; the “Migration velocity compared to control cells” value is given as “reduced”; the “Roughness compared to control cells” value was “decreased”. The “PKT area compared to control cells” value (in words) is on record as “reduced”.
Turning to `CCCCCCCCCCCCCC(=O)O[C@@H]1[C@@H](C)[C@@]2(O)[C@@H](C=C(CO)C[C@]3(O)C(=O)C(C)=C[C@@H]23)[C@@H]2C(C)(C)[C@]12OC(C)=O` [PMA, Phorbol 12-mirysyate 13-acetate], the Track area is recorded as 14300 ± 9100 μm^2, the Axis ratio is recorded as 2.1 ± 0.9, the Effective velocity is on record as 46 ± 21 μm/h and the Major axis stood at 220 ± 104 μm. For the same compound, the Migration velocity amounted to 59 ± 26 μm/h, the Minor axis worked out at 108 ± 42 μm, the Perimeter turned out to be 695 ± 350 μm and the Roughness worked out at 2.9 ± 1.4. This compound came in with a Solidity of 0.8 ± 0.1. Under “in words”, the “Effect on cell motility” value is “increase in cell motility”; the “Axis ratio compared to control cells” value was “did not significantly differ”; the “Effective velocity compared to control cells” value is “did not significantly differ”; the “Major axis compared to control cells” value is “did not significantly differ”. In addition, where the note is “in words”, the “Migration velocity compared to control cells” value is listed as “increased”, the “Minor axis compared to control cells” value is “did not significantly differ”, the “Roughness compared to control cells” value is listed as “increased” and the “PKT area compared to control cells” value is reported as “increased”. For the same compound, under “in words, p<0.05”, the “Solidity compared to control cells” value is listed as “increased”.
Regarding `C/C1=C/C(=O)O[C@@H]2C[C@@H](CC[C@H](C)/C=C\C=C\CC1)O[C@@](O)([C@@H]1CSC(=O)N1)C2` [Latrunculin A], the Track area is given as 5900 ± 3500 μm^2, the Axis ratio is given as 1.5 ± 0.4, the Effective velocity is reported as 8 ± 5 μm/h and the Major axis was determined as 121 ± 44 μm. Also, the Migration velocity worked out at 10 ± 6 μm/h, the Minor axis was found to be 79 ± 19 μm, the Perimeter amounted to 380 ± 150 μm and the Roughness was determined as 2.0 ± 0.7. This compound also registered a Solidity of 0.9 ± 0.07. Also, under “in words”, the “Effect on cell motility” value was “inhibited cell motility”; the “Axis ratio compared to control cells” value was “reduced”; the “Migration velocity compared to control cells” value is recorded as “reduced”; the “Roughness compared to control cells” value was “decreased”. Further, the “PKT area compared to control cells” value (in words) is on record as “reduced”.
